Source: US20240207362A1 (priority 2022, published 2024)
“Also recorded” adds a separate entry of the source.

Test system: dcLVs
Conditions: mouse, in vivo

Row | Structure (SMILES) | amount of CSF tracer (in dcLV) | contraction or dilation of dcLVs | contraction of dcLVs
1 | CNC[C@H](O)c1cccc(O)c1 [phenylephrine] | decreased | contracts; also recorded: dosage dependent contraction | –
2 | [Cl-].[K+] [potassium chloride] | – | – | strongly but transiently contracted
